Measured values reported in patent US6514686B2, “Method and composition for modulating amyloidosis” (The University of British Columbia, priority 1997, dated 2003).

Columns and labels:
Format in all cases: cell-based
[1] = tested on: APPs secretion in GSrasDN1 PC12 cells; assay: APPs secretion from GSrasDN1 PC12 cells (22C11 western blot, densitometry)
Description: The GSrasDN1 PC12 subline (Dr. Simon Halegous (State University of New York at Stony Brook)) expressing the dominant inhibitory mutant ras gene, p21^N17 under the control of a dexamethasone-inducible MMTV promoter (mouse mammary tumor virus), obtained as a gift from Dr. Simon Halegoua, (Kremer et al., J. Cell Biol. 115(3):809-819 (1991)) and grown in Dulbecco's modified Eagles' medium (DMEM, GIBCO) containing 5% fetal bovine serum (FBS: v/v) and 10% heat inactivated horse serum (HS, GIBCO).
RU-486 and NGF were solubilized in dimethylsulfoxide (DMSO). DMSO was used as a control vehicle in all experiments.
For drug exposure experiments in GSrasDN1 PC12 cells, cells were grown to confluence in 75 cm^2 polypropylene culture flasks from Falcon. Twelve hours prior to drug treatment, the culture medium was aspirated using a pasteur pipette and replaced with 10 ml of DMEM supplemented with 15% charcoal-stripped calf serum (SIGMA) to remove complement, immunoglobulins and endogenous steroid hormones secreted from the cells. Twelve hours later, this supplemental medium was aspirated and replaced with 10 ml of DMEM containing the treatment drugs. Flasks were allotted into the following treatment groups: a) Control and b) RU-486 (3.0 μM). DMSO concentrations were normalized to 0.06% (v/v) in all flasks.
Twelve hours following drug exposure, the medium was again aspirated and the cells were washed once with 10 ml of phosphate-buffered saline (PBS, SIGMA). Cells were removed from the bottom of the flask by incubating with 1.0 ml of trypsin (GIBCO) for five minutes. […]
After the fifteen minutes had elapsed, the tubes were placed immediately on ice to stop any reactions and 200 μl of a protease cocktail (100 μM PMSF (phenylmethanesulfonyl fluoride), 5 μg/ml Leupeptin, 5 μg/ml Aprotinin, and 5)μg/ml Pepstatin) was added to each tube. […] The nuclear fraction was pelletted down at 14,000 rpm for ten min. and 5 μl of cellular homogenate was collected for a protein quantification. […]

[2] = tested on: APPs secretion in wild-type PC12 cells; assay: APPs secretion from wild-type PC12 cells, fifteen minute exposure
Description: Phorbol 12-myristate 13-acetate (PMA) was purchased from LC Service Corp., Woburn, Mass. All other materials were obtained as previously described in Example 1. Wild-type PC12 cells were purchased from the American Type Tissue Culture Collection # CRL-1721 and grown in DMEM with 5% FBS fetal bovine serum and 10% horse serum (GIBCO).
PC12 cells grown to confluence were pretreated for twelve hours in DMEM supplemented with charcoal-stripped calf serum (SIGMA) as described above. After pretreatment, cells were trypsinized, resuspended, and counted as described above. 10 mls each of 1.0×10^6 cells/ml PC12 cells were aliquoted into 15 ml conical tubes containing the appropriate treatment group. PMA was used as a positive control as previous experiments had shown that such treatment increases APPs release (Buxbaum, J. D. et al., “Processing of Alzheimer β/A4 amyloid precursor protein: Modulation by agents that regulate protein phosphorylation”, Proc. Natl. Acad. Sci. USA 87:6003-6006 (1990); Caporaso, G. L. et al., “Protein phosphorylation regulates secretion of Alzheimer β/A4 amyloid precursor protein”, Proc. Natl. Acad. Sci. USA 89:3055-3059 (1992); Mills, J. and P. B. Reiner, “Phorbol esters but not the cholinergic agonists oxotremorine-M and carbachol increase release of the amyloid precursor protein in cultured rat cortical neurons”, J. Neurochem. 67:1511-1518 (1996), the teachings of which are hereby incorporated by reference). The final percentage of DMSO in all treatment groups was normalized to 0.01% (v/v).
Treatment groups were as follows: a) Control; b) PMA (0.1 μM); c) RU-486 (0.1 μM). The concentration of (0.1 μM) RU-486 was chosen because it was near the EC50 mark (FIG. 4). 1.0 ml of each treatment group was pipetted into 1.5 eppendorf tubes and incubated at 37° C. in a […] incubator for fifteen minutes. Harvesting and concentration of APPs were performed as described in Example 1. Protein band separation on SDS-PAGE, visualization of bands, and quantification of APPs were also performed as previously described.
Materials and methods utilized were as outlined above. […]

[3] = tested on: APPs secretion in KB-3.1 human carcinoma cell line; assay: APPs secretion from KB-3.1 cells with sub-detectable p-glycoprotein
Procedure: These cells were grown in DMEM with 10% FBS. All materials and methods are as outlined as above.

[4] = tested on: APPs secretion in KB-3.1 cells transfected with human MDR1 (p-glycoprotein); assay: APPs secretion from KB-3.1 cells transiently transfected with pHaMDR1; conditions: 0.1 μM, fifteen minutes, plated cells, transfection efficiency ~10-20%; FIG. 10
Procedure: KB-3.1 cells were grown as described above. The pHaMDR1 plasmid construct encoding human MDR1 was obtained as a gift from Dr. Ira Pastan (National Cancer Institute).
For calcium-phosphate transfections, cells were plated onto 10 cm polypropylene petri dishes (Falcon) at a density of 2.0×10^6 cells/dish. To prepare the cDNA for transfection, 15 μg/plate of pHaMDR1 cDNA was mixed together with 1/10 volumes of 3 M sodium Acetate, ˜3× volume of 100% ethanol in a 1.5 ml eppendorf tube and spun in a desktop centrifuge for thirty seconds. The tube was then filled to the top with ethanol and spun at 15,000 rpm at 4° C. for ten minutes. The ethanol was aspirated, leaving a tiny pellet of cDNA on the bottom. In a sterile fumehood, the cDNA was resuspended with 450 μl of 0.1× tris-EDTA(TE) ethylene diamine tetraacetic acid, tris EDTA and 50 μl of 2.5 M CaCl2. 500 μL of 2× BES (50 mM N, N-bis[2 Hydroxyethyl]2-aminoethanesu acid, 280 mM NaCl, 1.5 mM Na2HPO4.2 H2O, pH 6.96) was added to make a final volume of 1.0 ml. The entire mixture was allowed to sit for twenty minutes before adding the contents to the plate of cells. […]
Exposures were performed without resuspending the cells, in contrast to previous experiments described above. […] 5 μl from each sample was collected for protein quantification. Protein determination and APPs quantification were performed as previously described.

[5] = RU-486, dexamethasone 0.1 μM, progesterone, desmethoxyverapamil 1 μM, FIG. 7, 8

CC#C[C@]1(O)CC[C@H]2[C@@H]3CCC4=CC(=O)CCC4=C3[C@@H](c3ccc(N(C)C)cc3)C[C@@]21C [RU-486, 17β-hydroxy-11β-[4-dimethylaminophenyl]-17α prop-l-ynyl estra-4,9-dien-3 one]
increase in APPs secretion over NGF ([1]; RU-486 3.0 μM versus NGF 50 ng/ml, FIG. 2): ~6 fold
increase in APPs secretion over control samples ([1]; RU-486 3.0 μM, twelve hours exposure, APPs collected fifteen minutes, FIG. 2): ~12.5 fold
increased APPs secretion ([1]; at 3.0 μM RU-486, sub-maximal concentration, FIG. 4): ~21 fold

COc1cccc(CCN(C)CCCC(C#N)(c2ccc(OC)c(OC)c2)C(C)C)c1 (stereo not drawn) [desmethoxyverapamil]
effect on APPs secretion [2, 5]: significantly increased

CC(=O)[C@H]1CC[C@H]2[C@@H]3CCC4=CC(=O)CC[C@]4(C)[C@H]3CC[C@]12C [progesterone, Progesterone]
effect on APPs secretion [2, 5]: significantly increased

CCCCCCCCCCCCCC(=O)O[C@@H]1[C@@H](C)[C@@]2(O)[C@@H](C=C(CO)C[C@]3(O)C(=O)C(C)=C[C@@H]23)[C@@H]2C(C)(C)[C@]12OC(C)=O [PMA, Phorbol 12-myristate 13-acetate]
effect on APPs secretion ([2]; 0.1 μM, no drug pretreatment, FIG. 5): increase
modulation of APPs secretion ([3]; cells in suspension, FIG. 9): do not regulate
regulation of APPs secretion ([3]; non-transfected cells exposed while plated, 0.1 μM, fifteen minutes): no regulation
regulation of APPs secretion [4]: restored regulation
